The record followed here is ChEMBL document CHEMBL5465560, “Selectivity Literature for EUbOPEN Chemogenomic Library” (2024).

In assay [1] the target is Cyclin-dependent kinase-like 1 (Homo sapiens) (UniProt Q00532). Kind of assay: Selectivity interaction (Ambit KINOMEscan and KiNATiv profiling in Jurkat cells) EUB0000090b CDKL1. The class given is cell-based. To be noted: at 1 µM.
In assay [2] the target is Mitogen-activated protein kinase 10 (Homo sapiens, UniProt P53779). Kind of assay: Selectivity interaction (Ambit KINOMEscan and KiNATiv profiling in Jurkat cells) EUB0000090b MAPK10. The class given is cell-based. As to conditions: at 1 µM.
Assay [3] addresses Mitogen-activated protein kinase kinase kinase kinase 1 (Homo sapiens) (UniProt Q92918). Kind of assay: Selectivity interaction (Ambit KINOMEscan and KiNATiv profiling in Jurkat cells) EUB0000090b MAP4K1. The class given is cell-based. To be noted: at 1 µM.
Assay [4] deals with T1, 3-phosphoinositide-dependent protein kinase 1 (Homo sapiens) (UniProt O15530).
T1 sequence (whole entry): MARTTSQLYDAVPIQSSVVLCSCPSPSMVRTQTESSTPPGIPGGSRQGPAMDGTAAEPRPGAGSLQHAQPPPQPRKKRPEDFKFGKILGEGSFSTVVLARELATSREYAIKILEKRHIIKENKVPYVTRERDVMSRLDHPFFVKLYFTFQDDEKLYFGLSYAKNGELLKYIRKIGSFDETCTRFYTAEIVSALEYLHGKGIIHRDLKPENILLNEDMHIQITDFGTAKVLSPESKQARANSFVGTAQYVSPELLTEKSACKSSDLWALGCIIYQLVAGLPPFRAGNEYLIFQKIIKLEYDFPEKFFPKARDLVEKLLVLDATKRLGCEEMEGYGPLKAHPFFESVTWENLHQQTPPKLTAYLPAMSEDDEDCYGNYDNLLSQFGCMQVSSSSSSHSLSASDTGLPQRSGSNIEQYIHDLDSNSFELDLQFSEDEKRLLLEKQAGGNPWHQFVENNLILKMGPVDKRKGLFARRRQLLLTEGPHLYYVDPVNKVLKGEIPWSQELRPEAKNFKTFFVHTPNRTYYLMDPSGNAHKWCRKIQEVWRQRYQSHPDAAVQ
Kind of assay: Selectivity interaction (KinomeScan (DiscoverX)) EUB0000666a PDPK1. As to conditions: at 10 µM.

The target in assay [5] is T2, Mitogen-activated protein kinase kinase kinase 3 (Homo sapiens) (UniProt Q99759).
T2 sequence (whole entry): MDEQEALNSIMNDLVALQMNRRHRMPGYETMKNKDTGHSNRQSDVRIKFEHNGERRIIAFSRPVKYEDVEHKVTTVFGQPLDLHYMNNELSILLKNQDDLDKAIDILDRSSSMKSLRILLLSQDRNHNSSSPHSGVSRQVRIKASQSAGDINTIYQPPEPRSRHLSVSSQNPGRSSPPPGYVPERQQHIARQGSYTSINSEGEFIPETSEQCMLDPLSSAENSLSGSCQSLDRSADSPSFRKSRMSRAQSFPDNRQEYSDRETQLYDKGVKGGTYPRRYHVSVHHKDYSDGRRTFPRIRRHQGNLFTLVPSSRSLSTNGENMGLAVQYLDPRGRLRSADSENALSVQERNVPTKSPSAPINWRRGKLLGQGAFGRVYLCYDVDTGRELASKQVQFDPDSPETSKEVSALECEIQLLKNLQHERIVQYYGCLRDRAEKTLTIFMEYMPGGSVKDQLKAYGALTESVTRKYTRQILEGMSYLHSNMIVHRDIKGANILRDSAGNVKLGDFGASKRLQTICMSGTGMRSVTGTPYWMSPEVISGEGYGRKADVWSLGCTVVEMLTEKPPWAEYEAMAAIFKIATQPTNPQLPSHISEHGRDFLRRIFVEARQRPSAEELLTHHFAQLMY
Put plainly: Selectivity interaction (ActivX KiNativ screen (kinase selectivity in THP-1 cell lysates)) EUB0000639a MAP3K3. The class given is subcellular. To be noted: lysate.

The target of assay [6] is Serine/threonine-protein kinase MARK1 (Homo sapiens) (UniProt Q9P0L2). Kind of assay: Selectivity interaction (KinomeScan (DiscoverX)) EUB0001049a MARK1. As to conditions: at 1 µM.
For assay [7], the target named is MAP kinase-activated protein kinase 2 (Homo sapiens, UniProt P49137). Put plainly: Selectivity interaction (KinomeScan (DiscoverX)) EUB0000045b MAPKAPK2.
In assay [8] the target is Phosphatidylinositol 4,5-bisphosphate 3-kinase catalytic subunit gamma isoform (Homo sapiens) (UniProt P48736). Put plainly: Selectivity interaction (KinomeScan (DiscoverX)) EUB0000595a PIK3CG. To be noted: at 10 µM.
Chain of Phosphatidylinositol 4,5-bisphosphate 3-kinase catalytic subunit gamma isoform (Homo sapiens) (P48736 whole entry, looked up, canonical isoform): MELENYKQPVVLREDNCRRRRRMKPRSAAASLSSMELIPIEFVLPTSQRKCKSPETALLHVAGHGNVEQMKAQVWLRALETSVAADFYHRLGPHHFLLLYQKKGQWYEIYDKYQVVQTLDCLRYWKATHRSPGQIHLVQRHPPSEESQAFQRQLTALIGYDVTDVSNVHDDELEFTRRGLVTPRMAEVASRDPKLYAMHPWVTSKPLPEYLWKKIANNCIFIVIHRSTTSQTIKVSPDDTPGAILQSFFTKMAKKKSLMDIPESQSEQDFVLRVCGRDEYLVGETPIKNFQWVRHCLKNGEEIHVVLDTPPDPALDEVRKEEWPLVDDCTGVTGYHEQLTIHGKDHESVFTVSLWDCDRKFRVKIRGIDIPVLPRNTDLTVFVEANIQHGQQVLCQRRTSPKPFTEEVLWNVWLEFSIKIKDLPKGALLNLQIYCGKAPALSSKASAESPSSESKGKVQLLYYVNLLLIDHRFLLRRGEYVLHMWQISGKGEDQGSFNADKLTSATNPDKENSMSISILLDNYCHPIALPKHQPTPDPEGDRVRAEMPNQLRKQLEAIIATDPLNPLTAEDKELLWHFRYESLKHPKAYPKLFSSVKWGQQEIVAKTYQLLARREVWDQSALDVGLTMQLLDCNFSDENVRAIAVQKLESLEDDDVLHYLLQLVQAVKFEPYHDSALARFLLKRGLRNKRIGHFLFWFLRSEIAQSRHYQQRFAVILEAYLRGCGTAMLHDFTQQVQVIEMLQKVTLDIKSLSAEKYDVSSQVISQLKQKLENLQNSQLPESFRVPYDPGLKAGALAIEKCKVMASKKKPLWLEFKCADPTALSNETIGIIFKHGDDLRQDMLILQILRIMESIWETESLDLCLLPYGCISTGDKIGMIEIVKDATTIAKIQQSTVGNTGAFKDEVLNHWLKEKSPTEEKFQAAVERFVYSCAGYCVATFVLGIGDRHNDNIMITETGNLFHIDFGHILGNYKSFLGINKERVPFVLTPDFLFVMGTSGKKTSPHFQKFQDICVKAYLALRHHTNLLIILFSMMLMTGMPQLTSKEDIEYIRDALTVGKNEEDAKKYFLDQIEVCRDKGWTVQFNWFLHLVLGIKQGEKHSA

Chain of MAP kinase-activated protein kinase 2 (P49137 whole entry, looked up, canonical isoform): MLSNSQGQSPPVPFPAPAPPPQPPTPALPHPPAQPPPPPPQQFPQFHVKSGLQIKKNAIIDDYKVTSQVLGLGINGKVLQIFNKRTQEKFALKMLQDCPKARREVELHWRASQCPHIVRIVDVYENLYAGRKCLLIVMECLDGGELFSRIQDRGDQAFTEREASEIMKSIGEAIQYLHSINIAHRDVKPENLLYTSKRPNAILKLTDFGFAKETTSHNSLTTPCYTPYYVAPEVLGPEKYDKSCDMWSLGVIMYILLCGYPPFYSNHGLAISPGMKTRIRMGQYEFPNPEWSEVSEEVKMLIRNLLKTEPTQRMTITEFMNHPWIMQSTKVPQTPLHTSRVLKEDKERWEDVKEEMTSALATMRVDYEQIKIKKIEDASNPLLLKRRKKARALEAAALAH
Chain of Mitogen-activated protein kinase 10 (P53779 whole entry): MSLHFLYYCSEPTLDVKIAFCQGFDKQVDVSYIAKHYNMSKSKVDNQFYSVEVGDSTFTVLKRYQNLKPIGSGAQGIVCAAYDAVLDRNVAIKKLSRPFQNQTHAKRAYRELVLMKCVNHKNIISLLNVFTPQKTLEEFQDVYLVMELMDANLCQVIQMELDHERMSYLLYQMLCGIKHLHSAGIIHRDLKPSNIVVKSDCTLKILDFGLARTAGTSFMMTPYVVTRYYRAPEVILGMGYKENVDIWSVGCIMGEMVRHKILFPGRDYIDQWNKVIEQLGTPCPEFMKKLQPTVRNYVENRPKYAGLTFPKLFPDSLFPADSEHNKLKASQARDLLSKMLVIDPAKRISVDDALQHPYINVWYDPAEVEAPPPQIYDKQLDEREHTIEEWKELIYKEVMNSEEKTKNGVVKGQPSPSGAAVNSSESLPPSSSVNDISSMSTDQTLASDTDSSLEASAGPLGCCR
Chain of Serine/threonine-protein kinase MARK1 (Homo sapiens) (Q9P0L2 whole entry, looked up): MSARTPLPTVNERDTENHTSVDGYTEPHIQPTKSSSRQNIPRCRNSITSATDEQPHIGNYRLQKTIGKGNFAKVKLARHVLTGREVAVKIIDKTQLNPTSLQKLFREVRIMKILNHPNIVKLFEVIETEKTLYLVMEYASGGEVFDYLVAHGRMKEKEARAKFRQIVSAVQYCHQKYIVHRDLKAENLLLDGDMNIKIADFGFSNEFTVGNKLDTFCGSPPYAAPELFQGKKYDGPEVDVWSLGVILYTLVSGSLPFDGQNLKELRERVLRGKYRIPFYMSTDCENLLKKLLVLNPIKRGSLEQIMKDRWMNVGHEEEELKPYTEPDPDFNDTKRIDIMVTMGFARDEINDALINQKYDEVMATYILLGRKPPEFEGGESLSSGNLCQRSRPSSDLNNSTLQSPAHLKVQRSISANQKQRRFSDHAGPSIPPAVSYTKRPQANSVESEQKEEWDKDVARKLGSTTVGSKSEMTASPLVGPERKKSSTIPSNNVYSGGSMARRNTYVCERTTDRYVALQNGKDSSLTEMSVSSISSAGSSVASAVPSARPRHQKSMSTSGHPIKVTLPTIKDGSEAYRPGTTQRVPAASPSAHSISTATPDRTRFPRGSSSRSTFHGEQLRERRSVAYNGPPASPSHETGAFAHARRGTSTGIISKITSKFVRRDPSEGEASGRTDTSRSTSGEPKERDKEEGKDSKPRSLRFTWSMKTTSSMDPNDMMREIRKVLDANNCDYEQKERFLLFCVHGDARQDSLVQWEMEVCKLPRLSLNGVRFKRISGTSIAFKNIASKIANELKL
Chain of Cyclin-dependent kinase-like 1 (Homo sapiens) (Q00532 whole entry): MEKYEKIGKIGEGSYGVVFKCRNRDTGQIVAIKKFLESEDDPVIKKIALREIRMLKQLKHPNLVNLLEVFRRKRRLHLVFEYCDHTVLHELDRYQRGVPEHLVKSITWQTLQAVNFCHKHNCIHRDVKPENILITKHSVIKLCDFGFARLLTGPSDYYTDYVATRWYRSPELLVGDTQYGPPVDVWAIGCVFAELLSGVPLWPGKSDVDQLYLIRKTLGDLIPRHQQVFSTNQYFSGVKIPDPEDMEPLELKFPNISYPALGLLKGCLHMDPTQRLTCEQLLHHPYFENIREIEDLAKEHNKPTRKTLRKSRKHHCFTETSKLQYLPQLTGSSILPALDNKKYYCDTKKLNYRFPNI
Chain of Mitogen-activated protein kinase kinase kinase kinase 1 (Homo sapiens) (Q92918 whole entry, looked up): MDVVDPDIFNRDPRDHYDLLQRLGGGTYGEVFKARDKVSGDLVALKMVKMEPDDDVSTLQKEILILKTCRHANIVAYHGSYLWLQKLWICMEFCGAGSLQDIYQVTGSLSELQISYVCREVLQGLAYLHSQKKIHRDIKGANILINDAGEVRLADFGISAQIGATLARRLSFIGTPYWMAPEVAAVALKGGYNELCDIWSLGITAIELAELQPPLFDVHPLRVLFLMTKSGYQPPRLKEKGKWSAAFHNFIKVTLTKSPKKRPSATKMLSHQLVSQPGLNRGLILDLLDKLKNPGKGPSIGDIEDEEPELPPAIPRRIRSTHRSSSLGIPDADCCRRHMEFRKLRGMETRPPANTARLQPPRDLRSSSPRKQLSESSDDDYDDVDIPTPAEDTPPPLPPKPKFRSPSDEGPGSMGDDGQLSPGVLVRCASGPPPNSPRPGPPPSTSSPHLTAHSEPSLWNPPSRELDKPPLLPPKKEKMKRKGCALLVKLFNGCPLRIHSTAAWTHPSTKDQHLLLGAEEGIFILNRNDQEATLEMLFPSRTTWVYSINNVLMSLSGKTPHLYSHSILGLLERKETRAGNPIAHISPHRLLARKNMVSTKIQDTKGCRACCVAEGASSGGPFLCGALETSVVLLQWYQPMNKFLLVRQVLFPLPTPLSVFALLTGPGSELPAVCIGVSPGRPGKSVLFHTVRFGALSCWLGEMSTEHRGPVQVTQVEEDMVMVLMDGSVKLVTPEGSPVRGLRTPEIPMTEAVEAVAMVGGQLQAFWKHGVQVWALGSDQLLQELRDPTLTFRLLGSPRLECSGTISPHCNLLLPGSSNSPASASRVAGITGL

As to `CN(C)C/C=C/C(=O)Nc1ccc(C(=O)N2CCCC(Nc3ncc(Cl)c(-c4c[nH]c5ccccc45)n3)C2)cc1` (stereo not drawn), the % of control in assay [1] was found to be 38%; in assay [2], 1%; in assay [3], 80%.

`O=C(NOC[C@H](O)CO)c1ccc(F)c(F)c1Nc1ccc(I)cc1F` displayed a % of control in assay [4] of 71%.

Consider `CC[C@@H]1[C@H](F)C(=O)N[C@@H]1COc1nccc2cc(C(N)=O)c(OC)cc12` [ZIMLOVISERTIB], for which the % of inhibition was 8.7% in assay [5] (at 0.01 µM); 1.8% in assay [5] (at 0.04 µM); -1.4% in assay [5] (at 0.2 µM); -7.6% in assay [5] (at 1 µM); 12.6% in assay [5] (at 5 µM).

`COc1cc(Nc2nc(C)cc(-c3cnn4nc(OC)ccc34)n2)cc(C(F)(F)F)c1`: the % of control in assay [6] was 98%.

Turning to `C=CC(=O)Nc1cc(-n2c(=O)ccc3cnc4ccc(-c5ccc(NS(C)(=O)=O)cc5)cc4c32)ccc1C`, the % of control in assay [7] (at 1 µM) and in assay [7] (at 10 µM) was 100% throughout.

In assay [8], `COCC(=O)NC/C=C/c1ccc2ncnc(Nc3ccc(Oc4ccc(C)nc4)c(C)c3)c2c1` [CP-724714] registered a % of control of 100%.
